The record followed here is US10647708B2, “Tetrahydroisoquinoline derived PRMT5-inhibitors” (CTXT PTY LTD, priority 2014, dated 2020).

In test [1] the target is Full-length PRMT5 enzyme co-expressed with MEP50 (Homo sapiens (Human), UniProt O14744). Put plainly: Revised PRMT5 Biochemical Assay. As to conditions: 1 μM peptide substrate, 1 μM S-Adenosyl methionine, 4 hours at 37 degree Celsius, Transcreener EPIGEN fluorescence polarisation. How it is done:
Compounds of the invention may be tested for in vitro activity in the following assay: A histone H4 derived peptide is used as substrate (amino acid sequence: […]NH2). Full-length PRMT5 enzyme (NCBI Reference sequence NP_006100.2) was co-expressed with Hiss-MEP50 in insect cells and purified via Nickel immobilized metal affinity and gel filtration chromatography (“the enzyme”).
The 6 μL reactions are run in Greiner brand black 384-well low volume assay plates. All reactions contained assay buffer (phosphate buffered saline, 0.01% (v/v) Tween-20, 0.01% (w/v) albumin from chicken egg white, 1 mM Dithiothreitol, 1 μM peptide substrate, 1 μM S-Adenosyl methionine, and 15 ng/reaction enzyme, with the enzyme being omitted from negative control reactions. Compounds were added in a volume of 100 nL from dilution series prepared in DMSO, positive and negative control reactions receiving the same volume DMSO without compound. The plates were sealed with adhesive seals and incubated for 4 hours at 37 degree Celsius. Reaction progress was measured using the Transcreener™ EPIGEN methyltransferase assay (BellBrook Labs, Madison, Wis.) as recommended by the manufacturer. To each reaction 2 μL detection mix were added, containing coupling enzymes, fluorescence polarisation tracer, and AMP antibody. Plates were incubated for 90 minutes before being read on a PerkinElmer EnVision™ plate reader in fluorescence polarisation mode. IC50 values were obtained from the raw readings by calculating percent inhibition (% I) for each reaction relative to controls on the same plate (% I=(I−CN)/(CP−CN) where CN/CP are the averages of the negative/positive reactions, respectively), then fitting the % I data vs. compound concentration [I] to % I=(A+((B−A)/(1+((C/[I])^D)))) where A is the lower asymptote, B is the upper asymptote, C is the IC50 value, and D is the slope.
On the technique in general: Polarisation of emitted light reports the rotation of a fluorescent probe.

In test [2] the test system is symmetrical dimethylation of arginine (Histone H4 Arginine 3) in cell line TE11. Put plainly: Revised PRMT5 Biomarker Assay. Format: cell-based. As to conditions: TE11 cells, 72 hours incubation, anti-Di-Methyl Histone H4 Arginine 3 immunofluorescence, plate-reader based. As to the method: Compounds of the invention may be tested for potency to inhibit symmetrical dimethylation of arginine in the following assay:
The cell line TE11 was seeded at a density of 6,000 cells per well in 96 well optical quality tissue culture plates in DME medium and 10% foetal bovine serum, and allowed to adhere for 5 hours under standard culture conditions (37 degree Celsius, 5% CO2). Compound dilutions prepared in DMSO were added to the medium, with negative control wells reserved for treatment with DMSO only and positive controls receiving a potent PRMT5 inhibitor compound at 1 μM concentration. After incubation for 72 hours, the cells were fixed with 3.7% formaldehyde in PBS for 30 minutes at room temperature, washed with phosphate buffer saline and blocked with Odyssey blocking buffer (LI-COR, Lincoln, Nebr.). Rabbit anti-Di-Methyl Histone H4 Arginine 3 specific antibody (Epigentek) in Odyssey blocking buffer was added and incubated for 14 hours at 4 degree Celsius. After washing, anti-rabbit secondary antibody labelled with Alexa647 dye (LifeTechnologies) and Hoechst 33342 (1 μg/mL, SigmaAldrich) were added for 1 hour incubation. Plates were washed and read on a PerkinElmer Envision 2103 in fluorescence intensity scanning mode (24 scans across the well area). The methylation level information was corrected for the number of cells as expressed by the Hoechst 33342 stain, converted to percent inhibition relative to controls on the same plate and the data fitted against a four-parameter logistic model to determine the 50% inhibitory concentration (IC50 plate-reader based). Alternatively, the plates were imaged on a PerkinElmer Phenix high content imaging platform. Using a Columbus image analysis pipeline, individual nuclei were located by Hoechst 33342 stain and the methylation level was calculated from the Alexa647-related intensity in the same area. The resulting mean intensity per cell was directly converted to percent inhibition as outlined above (IC50, imager based)).

Full-length PRMT5 enzyme co-expressed with MEP50, sequence (O14744 whole entry): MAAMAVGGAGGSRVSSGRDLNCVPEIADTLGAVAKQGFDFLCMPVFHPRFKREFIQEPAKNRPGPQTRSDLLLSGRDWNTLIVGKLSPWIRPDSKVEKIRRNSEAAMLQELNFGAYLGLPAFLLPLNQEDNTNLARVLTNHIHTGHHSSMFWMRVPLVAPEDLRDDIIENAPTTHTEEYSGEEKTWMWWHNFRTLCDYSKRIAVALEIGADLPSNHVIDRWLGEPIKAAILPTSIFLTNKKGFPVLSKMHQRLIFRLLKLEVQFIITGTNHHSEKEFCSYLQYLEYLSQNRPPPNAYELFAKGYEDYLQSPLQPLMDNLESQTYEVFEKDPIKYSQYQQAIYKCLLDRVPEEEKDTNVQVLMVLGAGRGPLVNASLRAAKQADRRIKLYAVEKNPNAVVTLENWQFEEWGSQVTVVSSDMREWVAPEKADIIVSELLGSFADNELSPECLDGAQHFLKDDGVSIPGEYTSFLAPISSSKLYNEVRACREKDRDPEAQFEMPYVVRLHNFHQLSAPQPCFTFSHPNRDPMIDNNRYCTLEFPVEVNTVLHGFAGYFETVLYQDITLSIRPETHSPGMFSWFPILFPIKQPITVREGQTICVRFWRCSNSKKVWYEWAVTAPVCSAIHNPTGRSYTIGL
Full-length PRMT5 enzyme co-expressed with MEP50, sequence (Q9BQA1 whole entry partner): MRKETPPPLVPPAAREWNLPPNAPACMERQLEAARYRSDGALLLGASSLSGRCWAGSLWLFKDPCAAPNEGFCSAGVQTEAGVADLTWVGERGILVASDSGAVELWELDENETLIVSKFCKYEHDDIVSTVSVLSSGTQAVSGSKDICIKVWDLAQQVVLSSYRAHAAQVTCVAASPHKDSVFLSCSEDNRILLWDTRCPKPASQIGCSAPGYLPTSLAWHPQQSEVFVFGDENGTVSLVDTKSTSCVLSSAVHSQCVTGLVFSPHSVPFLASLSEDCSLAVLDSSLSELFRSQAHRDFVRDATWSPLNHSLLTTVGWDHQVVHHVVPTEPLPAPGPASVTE

As for `O=C(NCCC(O)CN1CCc2ccccc2C1)c1ccc2oc(=O)[nH]c2c1` (stereo not shown) [Compound 9], the IC50 (usually the midpoint of a concentration-inhibition curve) in test [1] is 4.35 µM.

The molecule `O=C(NCCC(O)CN1CCc2ccccc2C1)c1ccc(C(=O)N2CCCC2)cc1` (stereo not shown) [Compound 30] displayed an IC50 in test [1] of 3.12 µM.

In test [1], `COc1ccc(-n2cc(C(=O)NCCC(O)CN3CCc4ccccc4C3)cn2)cc1` (stereo not shown) [Compound 7] showed an IC50 of 1.94 µM.

`O=C(NCCC(O)CN1CCc2ccccc2C1)c1ccc(S(F)(F)(F)(F)F)cc1` (stereo not shown) [Compound 20]: the IC50 in test [2] (Homo sapiens, TE-11) is 0.505 µM; in test [1], 0.214 µM. In test [1], `CS(=O)(=O)c1ccccc1OCC(=O)NCCC(O)CN1CCc2ccccc2C1` (stereo not shown) [Compound 4] yielded an IC50 of 51.7 µM.

Consider `CC(=O)N1CCC(Nc2cc(C(=O)NCCC(O)CN3CCc4ccccc4C3)ccn2)CC1` (stereo not shown) [Compound 46], for which the IC50 in test [2] amounted to 0.007 µM; in test [1], 0.186 µM. For the molecule `Cc1c(C(=O)NCCC(O)CN2CCc3ccccc3C2)cnn1-c1ccccn1` (stereo not shown) [Compound 33], the IC50 in test [1] worked out at 7.45 µM. On the same count and under the same terms, next, `O=C(NCCC(O)CN1CCc2ccccc2C1)c1nnc(-c2ccccc2)o1` (stereo not shown) [Compound 11]: 39.2 µM; `O=C(NCCC(O)CN1CCc2ccccc2C1)c1cccc(C(=O)N2CCOCC2)c1` (stereo not shown) [Compound 45, N-(4-(3,4-dihydroisoquinolin-2(1H)-yl)-3-hydroxybutyl)-3-(morpholine-4-carbonyl)benzamide]: 5.23 µM. The same measure, in the same setting: the value for `COc1ccc(-c2cc(C(=O)NCCC(O)CN3CCc4ccccc4C3)on2)cc1` (stereo not shown) [Compound 8] was 3.09 µM; that for `O=C(NCCC(O)CN1CCc2ccccc2C1)c1cccc(Cl)c1` (stereo not shown) [Compound 18] was 9.79 µM; that for `Cc1c(C(=O)NCCC(O)CN2CCc3ccccc3C2)cnn1-c1ccncc1` (stereo not shown) [Compound 13] was 7.09 µM. Consider `O=C(NCCC(O)CN1CCc2ccccc2C1)c1ccc(OC(F)(F)F)cc1` (stereo not shown) [Compound 19], for which the IC50 is 0.089 µM in test [2] (Homo sapiens, TE-11) and 0.319 µM in test [1]. `O=C(NCCC(O)CN1CCc2ccccc2C1)c1noc(-c2ccccc2)n1` (stereo not shown) [Compound 34] returned an IC50 in test [1] of 56.1 µM. On to `O=C(NCCC(O)CN1CCc2ccccc2C1)c1ccnc(Cl)c1` (stereo not shown) [Compound 44, 2-Chloro-N-(4-(3,4-dihydroisoquinolin-2(1H)-yl)-3-hydroxybutyl)isonicotinamide], for which it took 13.7 µM to reach half-maximal inhibition in test [1] (IC50).

Take `O=C(NCCC(O)CN1CCc2ccccc2C1)c1ccc(-c2ccccc2)cc1` (stereo not shown) [Compound 40]: the IC50 in test [2] (Homo sapiens, TE-11) is 0.048 µM; in test [1] it was 0.769 µM. The molecule `O=C(NCCC(O)CN1CCc2ccccc2C1)c1ccc(OC(F)F)cc1` (stereo not shown) [Compound 21] registered an IC50 in test [1] of 0.415 µM. The same measure, in the same setting: the value for `O=C(NCCC(O)CN1CCc2ccccc2C1)c1cccc(-c2ccccc2)c1` (stereo not shown) [Compound 41] was 5.29 µM. For `Cc1nonc1COc1ccc(C(=O)NCCC(O)CN2CCc3ccccc3C2)cc1` (stereo not shown) [Compound 10], in test [1], inhibition was half-maximal at 3.98 µM (IC50). Still for that read-out and setting: the value for `O=C(NCCC(O)CN1CCc2ccccc2C1)c1ccc(C(F)(F)F)cc1` (stereo not shown) [Compound 5] was 1.33 µM. Still for that read-out and setting: the value for `O=C(NCCC(O)CN1CCc2ccccc2C1)c1cccc(-c2ccnnc2)c1` (stereo not shown) [Compound 25] was 6.35 µM. The same measure, in the same setting: the value for `O=C(NCCC(O)CN1CCc2ccccc2C1)c1cccnc1` (stereo not shown) [Compound 17] was 15 µM; that for `Cc1nnc(-c2cccc(C(=O)NCCC(O)CN3CCc4ccccc4C3)c2)o1` (stereo not shown) [Compound 39] was 1.22 µM; that for `Cc1nnc(-c2ccc(C(=O)NCCC(O)CN3CCc4ccccc4C3)cc2)o1` (stereo not shown) [Compound 42] was 2.83 µM.

`O=C(NCCC(O)CN1CCc2ccccc2C1)c1ccc(N2CCCCC2=O)cc1` (stereo not shown) [Compound 6]: inhibition in test [1] was half-maximal at 13.1 µM (IC50). On the same count and under the same terms, the value for `O=C(NCCC(O)CN1CCc2ccccc2C1)c1ccn(Cc2ccccc2)c(=O)c1` (stereo not shown) [Compound 12] was 1.59 µM; that for `O=C(NCCC(O)CN1CCc2ccccc2C1)c1ccc2c(c1)OC(F)(F)O2` (stereo not shown) [Compound 23] was 1.69 µM. Regarding `Cc1nn(C)cc1-c1cc(C(=O)NCCC(O)CN2CCc3ccccc3C2)no1` (stereo not shown) [Compound 36], the IC50 in test [2] (Homo sapiens, TE-11) turned out to be 0.023 µM; in test [1], 1.2 µM. As to `O=C(NCCC(O)CN1CCc2ccccc2C1)c1coc(-c2ccccc2)n1` (stereo not shown) [Compound 35], in test [1], the IC50 came out at 1.21 µM. The same measure, in the same setting: next, `Cn1ccc(C(=O)NCCC(O)CN2CCc3ccccc3C2)cc1=O` (stereo not shown) [Compound 29]: 10.8 µM; `COc1ccc(C(=O)NCCC(O)CN2CCc3ccccc3C2)cc1-c1cncnc1` (stereo not shown) [Compound 27]: 5.62 µM; `O=C(NCCC(O)CN1CCc2ccccc2C1)c1ccc(N2CCOCC2)nc1` (stereo not shown) [Compound 14]: 0.91 µM.

`O=C(NCCC(O)CN1CCc2ccccc2C1)c1ccnn1-c1cccnc1` (stereo not shown) [Compound 38]: in test [1], it took 2.88 µM to reach half-maximal inhibition (IC50). The same measure, in the same setting: the value for `Cc1cccc(C(=O)NCCC(O)CN2CCc3ccccc3C2)n1` (stereo not shown) [Compound 24] was 25.4 µM; that for `Cn1cc(-c2cc(C(=O)NCCC(O)CN3CCc4ccccc4C3)no2)cn1` (stereo not shown) [Compound 37] was 1.19 µM; that for `O=C(NCCC(O)CN1CCc2ccccc2C1)c1cncc(Cl)n1` (stereo not shown) [Compound 43] was 106 µM.

In test [1], `C[S+]([O-])c1ccc(C(=O)NCCC(O)CN2CCc3ccccc3C2)cc1` (stereo not shown) [Compound 26] gave an IC50 of 3.75 µM.

For the molecule `O=C(NCCC(O)CN1CCc2ccccc2C1)c1ccc(S(=O)(=O)C(F)(F)F)cc1` (stereo not shown) [Compound 2], the IC50 in test [1] was found to be 1.13 µM. Still for that read-out and setting: next, `N#Cc1cccc(C(=O)NCCC(O)CN2CCc3ccccc3C2)c1` (stereo not shown) [Compound 16]: 13 µM; `CS(=O)(=O)c1ccc(C(=O)NCCC(O)CN2CCc3ccccc3C2)cc1` (stereo not shown) [Compound 22]: 7.02 µM; `O=C(NCCC(O)CN1CCc2ccccc2C1)c1cnn(-c2ccccn2)c1` (stereo not shown) [Compound 28]: 12.3 µM.

As for `O=C(NCCC(O)CN1CCc2ccccc2C1)c1ccc(C(=O)N2CCC2)cc1` (stereo not shown) [Compound 31], in test [1], the IC50 worked out at 3.16 µM. As to `O=C(NCCC(O)CN1CCc2ccccc2C1)c1ccc([S+]([O-])C(F)(F)F)cc1` (stereo not shown) [Compound 3], the IC50 in test [1] worked out at 0.925 µM.

As for `CN(C)C(=O)c1ccc(C(=O)NCCC(O)CN2CCc3ccccc3C2)cc1` (stereo not shown) [Compound 32], the IC50 in test [1] came out at 3.54 µM.
